Source: ChEMBL document CHEMBL1201862, “PubChem BioAssay data set” (2004)
Active and inactive are the calls of the source.

Columns and labels:
[1] = Luminescence Cell-Based Dose Retest to Confirm Inhibitors of Cancer Stem Cells. [Related pubchem assays (depositor defined):AID2717, AID2721]; format: functional; settings: Homo sapiens
X-box-binding protein 1 = X-box-binding protein 1 (Homo sapiens, UniProt P17861); format: functional, Cricetulus griseus;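 further: confirmatory dose-response counter-screen serving a CHOP assay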
Chain of X-box-binding protein 1 (P17861 whole entry): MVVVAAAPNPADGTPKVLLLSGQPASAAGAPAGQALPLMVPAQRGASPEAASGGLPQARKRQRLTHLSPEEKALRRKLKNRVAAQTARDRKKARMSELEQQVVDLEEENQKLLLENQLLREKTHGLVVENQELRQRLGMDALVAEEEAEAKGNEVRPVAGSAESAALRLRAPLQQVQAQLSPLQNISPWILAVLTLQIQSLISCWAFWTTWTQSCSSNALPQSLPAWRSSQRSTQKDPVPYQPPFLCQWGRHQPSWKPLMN

Streptokinase A = target: T1, Streptokinase A (Streptococcus pyogenes serotype M1, UniProt P10520); test: viability-normalized secreted streptokinase activity reduction – plasminogen activation absorbance, OD405, dose response (AID 1914); format: functional, Streptococcus pyogenes M1 GAS;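 further: secreted streptokinase activity via plasminogen activation per viability signal from cell pellet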
T1 sequence (P10520 whole entry): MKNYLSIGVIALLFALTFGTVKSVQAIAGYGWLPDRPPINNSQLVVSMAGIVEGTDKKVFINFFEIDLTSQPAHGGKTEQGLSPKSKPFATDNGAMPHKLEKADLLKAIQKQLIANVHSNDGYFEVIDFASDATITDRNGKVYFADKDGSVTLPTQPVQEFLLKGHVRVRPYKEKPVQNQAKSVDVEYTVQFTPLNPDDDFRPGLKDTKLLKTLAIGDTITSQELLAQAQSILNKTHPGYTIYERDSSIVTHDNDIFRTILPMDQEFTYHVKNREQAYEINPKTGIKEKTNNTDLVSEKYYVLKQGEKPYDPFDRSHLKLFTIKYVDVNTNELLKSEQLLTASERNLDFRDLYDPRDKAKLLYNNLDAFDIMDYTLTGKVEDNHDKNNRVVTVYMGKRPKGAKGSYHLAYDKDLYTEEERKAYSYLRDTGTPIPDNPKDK

Tumor necrosis factor = Tumor necrosis factor (Homo sapiens, UniProt P01375); test: analog potency on TNFa NF-kB signaling – cell-based, revised, SAR follow-up (AID 2337); format: functional
Chain of Tumor necrosis factor (P01375 whole entry, the tested form may be a part): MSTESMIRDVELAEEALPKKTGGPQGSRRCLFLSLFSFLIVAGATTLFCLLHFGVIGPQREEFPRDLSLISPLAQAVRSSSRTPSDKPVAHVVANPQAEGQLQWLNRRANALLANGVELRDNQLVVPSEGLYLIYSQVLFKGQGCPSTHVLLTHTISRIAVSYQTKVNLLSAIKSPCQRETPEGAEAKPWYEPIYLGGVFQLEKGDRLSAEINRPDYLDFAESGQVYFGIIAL

[2] = target: T2, Nucleotide-binding oligomerization domain-containing protein 1 (Homo sapiens, UniProt Q9Y239); test: blockers of NOD1 pathway activity – revised, SAR follow-up (AID 2333); format: functional
T2 sequence (Q9Y239 whole entry): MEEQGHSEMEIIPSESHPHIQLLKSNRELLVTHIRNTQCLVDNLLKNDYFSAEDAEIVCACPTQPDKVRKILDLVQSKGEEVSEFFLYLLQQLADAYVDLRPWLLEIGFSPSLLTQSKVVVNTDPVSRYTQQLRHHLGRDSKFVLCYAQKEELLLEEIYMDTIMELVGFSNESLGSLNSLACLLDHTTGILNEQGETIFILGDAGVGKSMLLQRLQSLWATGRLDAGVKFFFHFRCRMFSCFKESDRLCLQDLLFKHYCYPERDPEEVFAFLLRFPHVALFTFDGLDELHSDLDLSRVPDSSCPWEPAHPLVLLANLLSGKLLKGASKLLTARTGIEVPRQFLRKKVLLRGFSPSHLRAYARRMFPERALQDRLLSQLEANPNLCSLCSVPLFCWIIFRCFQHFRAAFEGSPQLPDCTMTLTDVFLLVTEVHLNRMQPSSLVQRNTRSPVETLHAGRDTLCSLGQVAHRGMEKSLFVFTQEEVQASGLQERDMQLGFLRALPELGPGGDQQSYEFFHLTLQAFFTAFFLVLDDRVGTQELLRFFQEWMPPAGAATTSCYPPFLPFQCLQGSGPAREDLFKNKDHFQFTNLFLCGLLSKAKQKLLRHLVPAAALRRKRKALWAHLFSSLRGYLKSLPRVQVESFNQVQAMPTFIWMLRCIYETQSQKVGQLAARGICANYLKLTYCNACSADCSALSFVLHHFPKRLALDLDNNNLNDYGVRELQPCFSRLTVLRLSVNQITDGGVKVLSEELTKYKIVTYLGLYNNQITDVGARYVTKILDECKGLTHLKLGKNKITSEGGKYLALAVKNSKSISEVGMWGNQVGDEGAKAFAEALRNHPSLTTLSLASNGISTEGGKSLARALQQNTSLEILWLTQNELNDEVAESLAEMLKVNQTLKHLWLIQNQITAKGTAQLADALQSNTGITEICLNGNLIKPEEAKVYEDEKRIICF

[3] = target: Nucleotide-binding oligomerization domain-containing protein 2 (Homo sapiens, UniProt Q9HC29); test: PubChem AID 2334; format: functional
Chain of Nucleotide-binding oligomerization domain-containing protein 2 (Q9HC29 whole entry, the tested form may be a part): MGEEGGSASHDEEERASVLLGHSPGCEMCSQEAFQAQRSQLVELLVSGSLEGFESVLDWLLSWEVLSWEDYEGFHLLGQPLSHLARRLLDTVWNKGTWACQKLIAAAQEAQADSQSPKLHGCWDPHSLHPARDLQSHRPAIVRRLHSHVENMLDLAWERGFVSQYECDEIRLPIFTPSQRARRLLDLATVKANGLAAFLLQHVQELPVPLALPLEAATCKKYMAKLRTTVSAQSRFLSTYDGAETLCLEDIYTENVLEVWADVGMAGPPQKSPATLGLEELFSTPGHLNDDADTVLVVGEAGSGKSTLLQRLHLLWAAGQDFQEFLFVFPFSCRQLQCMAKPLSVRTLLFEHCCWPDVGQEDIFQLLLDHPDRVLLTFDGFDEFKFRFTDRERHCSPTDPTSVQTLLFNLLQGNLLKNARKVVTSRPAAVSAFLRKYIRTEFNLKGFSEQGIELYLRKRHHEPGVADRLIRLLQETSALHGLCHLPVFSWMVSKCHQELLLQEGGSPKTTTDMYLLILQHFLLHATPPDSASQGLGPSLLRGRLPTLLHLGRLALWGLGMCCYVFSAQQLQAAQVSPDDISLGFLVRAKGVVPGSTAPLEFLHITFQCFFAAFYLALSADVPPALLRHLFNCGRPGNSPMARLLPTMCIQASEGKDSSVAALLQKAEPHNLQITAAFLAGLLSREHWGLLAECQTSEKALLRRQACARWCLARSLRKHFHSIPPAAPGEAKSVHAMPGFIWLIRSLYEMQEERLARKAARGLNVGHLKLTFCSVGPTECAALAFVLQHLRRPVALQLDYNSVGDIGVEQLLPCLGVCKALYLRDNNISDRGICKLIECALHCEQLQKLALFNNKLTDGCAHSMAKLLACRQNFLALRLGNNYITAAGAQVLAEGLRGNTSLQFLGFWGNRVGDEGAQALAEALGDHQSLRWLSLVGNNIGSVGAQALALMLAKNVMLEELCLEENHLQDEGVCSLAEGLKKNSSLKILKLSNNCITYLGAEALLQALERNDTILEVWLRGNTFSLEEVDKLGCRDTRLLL

[4] = target: T3, Corticotropin-releasing factor receptor 2/Corticotropin-releasing factor-binding protein (Homo sapiens, UniProt P24387+Q13324); test: Dose Response confirmation of uHTS hits for small molecule antagonists of the CRF-binding protein and CRF-R2 receptor complex.; format: functional; settings: read-out: IC50_Mean
T3 sequence (Q13324 whole entry): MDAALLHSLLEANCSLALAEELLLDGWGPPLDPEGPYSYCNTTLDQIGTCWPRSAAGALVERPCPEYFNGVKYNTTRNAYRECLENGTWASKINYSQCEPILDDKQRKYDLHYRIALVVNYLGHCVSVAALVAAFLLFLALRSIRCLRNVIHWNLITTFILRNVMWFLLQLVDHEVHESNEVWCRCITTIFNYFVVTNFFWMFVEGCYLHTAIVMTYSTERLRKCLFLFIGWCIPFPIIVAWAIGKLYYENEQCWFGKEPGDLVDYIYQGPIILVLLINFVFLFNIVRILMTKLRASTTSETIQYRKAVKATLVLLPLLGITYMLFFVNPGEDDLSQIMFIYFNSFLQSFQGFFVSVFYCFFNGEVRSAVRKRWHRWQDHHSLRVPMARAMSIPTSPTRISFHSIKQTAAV
T3 sequence (P24387 whole entry): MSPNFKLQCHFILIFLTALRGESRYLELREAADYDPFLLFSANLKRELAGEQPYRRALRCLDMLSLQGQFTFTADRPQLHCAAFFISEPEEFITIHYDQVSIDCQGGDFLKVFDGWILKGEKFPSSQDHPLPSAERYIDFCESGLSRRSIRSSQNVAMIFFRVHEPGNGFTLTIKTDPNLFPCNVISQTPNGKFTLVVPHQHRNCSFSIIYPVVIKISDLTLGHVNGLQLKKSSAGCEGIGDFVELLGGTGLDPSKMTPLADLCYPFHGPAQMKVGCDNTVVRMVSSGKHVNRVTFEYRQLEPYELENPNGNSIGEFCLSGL

[5] = target: T3, Corticotropin-releasing factor receptor 2/Corticotropin-releasing factor-binding protein; test: activators of CRF receptor 2 with binding protein – uHTS hits, confirmation (AID 602473); format: functional; settings: read-out: EC50_Mean
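Wherever AC50 is given: cells exposed to compound for roughly 70 hours or longer before luminescence read.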

Row | SMILES | AC50 [1] | Absolute IC50 (XBP1) (X-box-binding protein 1) | EC50 (Streptokinase A) | IC50 (Tumor necrosis factor) | IC50 [2] | IC50 [3] | IC50 [4] | EC50 [5]
1 | Cc1[nH]c2ccccc2c1/C=N/NC(=O)C1CC1(c1ccccc1)c1ccccc1 (stereo not drawn) | 3.79 µM (active) | 10 µM |  |  |  |  |  | 
2 | Cc1ccc(SCc2cc(=O)[nH]c(SCC(=O)Nc3cc(Cl)ccc3Cl)n2)cc1 |  |  | 42.6 µM (inconclusive) | 8.65 µM (active) | 7.37 µM (active) | 9.95 µM (active) | 5.65 µM (active) | > 53 µM (inactive)
